Laboratory results reported in article PMC4961957, “Dose-Dependent Suppression of Cytokine production from T cells by a Novel Phosphoinositide 3-Kinase Delta Inhibitor” (Scientific Reports, 2016).

Molecular target: T1, PI3Kδ (p110δ) (Homo sapiens, UniProt O00329)
T1 construct: gene PIK3CD
Test: FRET-based in vitro kinase assay; class I PI3K binding also seen in KinomeScan ATP-site competition panel ([…])
Type: biochemical

T1 sequence (O00329 whole entry): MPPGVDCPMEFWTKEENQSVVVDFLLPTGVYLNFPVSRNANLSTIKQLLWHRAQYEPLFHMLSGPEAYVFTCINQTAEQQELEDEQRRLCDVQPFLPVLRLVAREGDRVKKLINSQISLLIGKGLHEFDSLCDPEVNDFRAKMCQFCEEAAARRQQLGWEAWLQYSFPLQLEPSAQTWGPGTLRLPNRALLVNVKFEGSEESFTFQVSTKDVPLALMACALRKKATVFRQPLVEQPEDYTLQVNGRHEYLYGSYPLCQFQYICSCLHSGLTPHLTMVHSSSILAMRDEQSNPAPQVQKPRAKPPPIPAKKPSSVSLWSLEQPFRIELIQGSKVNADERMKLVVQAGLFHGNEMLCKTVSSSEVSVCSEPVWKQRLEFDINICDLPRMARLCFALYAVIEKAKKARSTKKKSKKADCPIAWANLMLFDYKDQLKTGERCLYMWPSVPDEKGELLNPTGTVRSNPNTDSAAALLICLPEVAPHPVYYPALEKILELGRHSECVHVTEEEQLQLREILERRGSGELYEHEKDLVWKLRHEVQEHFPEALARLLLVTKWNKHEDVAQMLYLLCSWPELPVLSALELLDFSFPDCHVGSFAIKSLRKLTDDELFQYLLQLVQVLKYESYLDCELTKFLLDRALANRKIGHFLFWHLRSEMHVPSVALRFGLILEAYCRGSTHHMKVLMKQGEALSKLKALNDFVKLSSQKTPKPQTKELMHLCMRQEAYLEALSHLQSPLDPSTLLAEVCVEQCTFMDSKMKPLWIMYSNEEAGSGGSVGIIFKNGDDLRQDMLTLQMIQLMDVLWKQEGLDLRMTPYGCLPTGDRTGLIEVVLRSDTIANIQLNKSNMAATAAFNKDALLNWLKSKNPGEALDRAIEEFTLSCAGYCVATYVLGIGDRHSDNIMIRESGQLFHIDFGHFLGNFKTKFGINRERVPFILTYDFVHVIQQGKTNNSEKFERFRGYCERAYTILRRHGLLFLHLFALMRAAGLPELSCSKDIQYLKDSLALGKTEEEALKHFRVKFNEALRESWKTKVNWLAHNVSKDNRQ

## GS-649443 [Compound B]
  IC50: 0.28 nM
